Where no end group is shown, it is not given here.
Experiments:
[1] = test system: dermal and epidermal hyaluronic acid levels; conditions: ex vivo human skin model; cited from earlier work
[2] = test system: Hyaluronic Acid Synthase 2 (HAS2); experiment: RNA-Seq gene expression of HAS2 in dermal fibroblasts; type: cell-based, Human; conditions: 24 hr, Octapeptide 100 μg/ml
Protocol: (§1) Cell Lines. Human adult dermal fibroblast and keratinocyte cell lines were treated with 11 different compound treatments (plus DMSO control as treatment #12Primary cells were plated in cell specific media at 5K or 10K cells per cm^2. Cells were plated in 48 well plates (Greiner) in triplicate, one cell line per plate. Media volume was 500 ul per well. Outer two columns of wells were not used. All rows were used. Cells were cultured for 2 days in 37° C. 5% CO2 incubator. After 48 hours all the cell cultures were uniform and appeared healthy, no appreciable number of floating dead cells or evidence of vacuolization of cells that might indicate apoptotic or dying cells.
(§2) Compounds. Stocks of compounds 1 through 8 on the list below were prepared in PBS. […] This stock was 100× of final concentration. A 20 mg/ml stock of compound 10 (CBD) was prepared in DMSO. No undissolved particulates were observed but the stock solution was slightly cloudy, not completely clear. […]
(§3) RNA Lysate preparation. […] All samples were shipped frozen on dry ice for RNA extraction, library construction and sequencing to 25M paired end 100 bp reads per sample.
(§4) RNA-Seq. All the RNA samples were shipped frozen on dry ice for RNA extraction, library construction and sequencing to 25M paired end 100 bp reads per sample. Differentially expressed genes were identified and pathway enrichment was assessed using the Reactome Pathway.

Hyaluronidase 2 (HYAL2) = experiment: RNA-Seq gene expression of HYAL2 in keratinocytes; type: cell-based, Human; conditions: 24 hr, 100 μg/ml
Protocol: as §1, §2, §3, §4

dermal fibroblasts = experiment: HA production and size assessment by PAGE of fibroblast supernatant; type: cell-based, human; conditions: 1× and 10× (100 μg/ml and 1000 μg/ml), 72 hr, 4 experiments
Protocol: Dermal fibroblasts were cultured in growth medium until near confluence in 6-well plates. When they reached confluence, the growth medium was replaced with serum-free medium for 24 hours. After 72 hr, 100 μl of media was collected from each treatment condition. The media was concentrated in a SpeedVac concentrator to a final volume of ˜10 μl. All 10 μl from each condition, were loaded onto an acrylamide gel (NuPAGE 4-12% Bis-Tris Protein Gel, Invitrogen, Waltham, MA). Sodium Hyaluronate, Research Grade, (HA2M) from Lifecore Biomedical (Chaska, MN) was reconstituted as recommended by the manufacturer and served as a MW reference, representing high MW HA. The gel was run at 200V for 3 hours to separate MW sizes from proteins and ECM components isolated from the supernatants along with the HA2M reference as a comparator. Gel buffer was exchanged with fresh room temperature buffer every 20 minutes to avoid overheating. The gel was stained using Stains-All (Millipore Sigma, Burlington, MA) and destained according to the manufacturer's protocol. […]
Human dermal fibroblasts were treated with Octapeptide (1× and 10×; corresponding to 100 μg/ml and 1000 μg/ml respectively) or left untreated. […] The experiment was conducted 4 times and the density of the bands from each supernatant were quantified (arbitrary units (AU)) using ImageJ. […]

[3] = test system: microfibrillar-associated protein 4 (MFAP4); experiment: Ex vivo human skin tissue, MFAP4 immunofluorescent staining; conditions: once daily for 7 days, 20 μg/ml of each peptide
Protocol: (§5) Referring to FIG. 24, human skin tissue was defatted and cut into a diameter of approximately 7 mm and placed in a transwell insert with cell culture media (DMEM/F12 containing […] CaCl2), 2% fetal bovine serum, 50 μM adenine, 0.02 nM tri-iodothyronine, 1% ITS-X (insulin, transferrin, selenium mix), 1% glutagro (a glutamine equivalent), 1% pen/strep, and 1% gentamycin). The medium was changed daily. The human skin tissue samples were equilibrated for 3 days, then treated with the compounds noted in Table 6 once daily for 7 days. After 7 days of treatment, the skin samples were fixed in formalin and embedded in paraffin following industry standard procedures. The resulting blocks were prepared and sectioned for immunofluorescent staining.
(§6) Antibodies directed to tropoelastin (TE) (available from Elastin, Owensville, MO) and antibodies against microfibrillar-associated protein 4 (MFAP4) (available from ThermoFisher Waltham, MA) were used to detect the production of new elastin in the treated cells. The appropriate fluorescent secondary antibodies were used for detection by fluorescence microscopy. Images were obtained and analyzed using ImageJ software.
(§7) Data was obtained from a minimum of three donor skin samples and replicates or triplicates were performed for each compound treated.

tropoelastin (TE) = experiment: Ex vivo human skin tissue, tropoelastin immunofluorescent staining; conditions: once daily for 7 days, 20 μg/ml of each peptide
Protocol: as §5, §6, §7

[4] = test system: Hyaluronic Acid Synthase 2 (HAS2); experiment: RNA-Seq gene expression of HAS2 in keratinocytes; type: cell-based, Human; conditions: 24 hr, Hexapeptide 11 100 μg/ml
Protocol: as §1, §2, §3, §4

[5] = test system: Early Growth Response 3 (EGR3); experiment: RNA-Seq gene expression of EGR3 in keratinocytes; type: cell-based, Human; conditions: 24 hr, Hexapeptide 11 100 μg/ml
Protocol: as §1, §2, §3, §4

Row | Molecule | stimulation of dermal hyaluronic acid levels versus placebo [1] | stimulation of epidermal hyaluronic acid levels versus placebo [1] | HAS2 gene expression, fold-change relative to the non-treated cells [2] | HYAL2 gene expression, fold-change relative to the non-treated cells (Hyaluronidase 2 (HYAL2)) | production of high MW HA (band density, AU) (dermal fibroblasts) | MFAP4 expression vs untreated skin [3] | TE expression vs untreated skin (tropoelastin (TE)) | HAS2 gene expression, fold-change relative to the non-treated cells [4] | upregulation of EGR3 gene expression relative to the non-treated cells [5]
1 | CCCCCCCC(=O)CCc1ccc(O)c(OC)c1 [Hydroxymethoxyphenyl decanone] | 259% | 198% |  |  |  |  |  |  | 
2 | GPHGVREA [octapeptide-45, proprietary peptide designed by R&D at Alastin; octapeptide included in HA Immerse Serum] |  |  | excellent stimulation | modest downregulation | dose-responsive increase in the production of high MW HA | increases | increases |  | 
3 | Hexapeptide-11 |  |  |  | potent downregulation |  |  |  | excellent upregulation | about seven
